# Entries after “also recorded” stand apart in the source; their conditions may differ.
# Experiments:
# mice [1] = assay: rotarod; assay type: in vivo, mouse; conditions: 10 mg/kg i.p., 1 hour
# Method: Rotarod. Motor function was assessed using a rotarod (IITC Life Science rotarod series 8) with ramp speed (20 rpm acceleration) at a starting speed of […] for a maximum of 120s. The time until each animal fell was recorded for each trial. Naïve mice were trained for 1 trial, and then 2 baseline trials were conducted and scores for both trials were averaged.
# infralimbic cortex = assay: axon initial segment (AIS) length in infralimbic cortex, immunohistochemistry; assay type: in vivo, mouse; conditions: 10 mg/kg p.o. daily for 7 days, male SNI mice
# Method: Immunohistochemistry. All mice were perfused at 3 weeks post-surgery (the day after rule-shifting). Mice were deeply anesthetized with a mixture of ketamine (80 mg/kg) and xylazine (12 mg/kg; i.p.) and then transcardially perfused with 1× phosphate buffered saline (PBS; 4° C., pH 7.4) followed by 10% formalin in 0.1 M phosphate buffer (PB; 4° C., pH 7.4; 25 mL at a flow rate of […]) using a perfusion pump. Brains were dissected and transferred […] to a 30% sucrose in 0.1M PB. Once the brains sunk in sucrose, they were frozen in OCT over dry ice. Coronal sections (30 μm) were cut using a cryostat and a hole was placed in the left hemisphere to demarcate the left (ipsilateral) hemisphere. Free floating sections were then washed in 0.1M PB, and then incubated in blocking solution (10% Normal Goat Serum, 0.3% Triton-X 100 in 0.1M PB) for 1 hr at room temperature with gentle rocking/agitation. Sections were incubated in primary antibody (mouse-anti-AnkyrinG; UC Davis/NIH NeuroMab Facility, clone N106/36 RRID:AB_10673030; 2 μg/ml working concentration) diluted in blocking solution for 3 hrs at room temperature. […]
# Image Analysis. […] For each image, 30 segments were analyzed in layers 2/3 and layers 5/6 of the ipsilateral and contralateral IL in CellSens (Olympus) using the polyline measure tool. […]
# [2] = test system: eIF4E phosphorylation at serine 209; conditions: in vitro, tumor cell lines; read-out: IC50, reduction of eIF4E phosphorylation at serine 209; cited from earlier work
# mice [3] = assay: open field; assay type: in vivo, mouse; conditions: 10 mg/kg i.p., 1 hour; vehicle had the same effect
# Method: Open field. […] Movement in the maze was video recorded for 10 minutes via ceiling-mounted cameras and tracked using a custom script in MATLAB-2015b. The script outputs total distance traveled and path tracking.
# eIF4E phosphorylation = assay: Western blot of eIF4E phosphorylation in mPFC, DRG and sciatic nerve; assay type: in vivo, mouse
# Method: Western blotting. […] The mPFC and DRGs were rapidly microdissected under a dissecting microscope and then flash frozen on dry ice. The mPFC was similarly collected from a separate group of WT male and female sham and SNI mice at 21 days post injury (the same time point as all rule-shifting experiments). Frozen tissues were homogenized with a pestle in lysis buffer (50 mM Tris, pH 7.4, 150 mM NaCl, 1 mM EDTA, pH 8.0, and 1% Triton X-100) containing protease and phosphatase inhibitors (Sigma-Aldrich), and then sonicated briefly. Samples were centrifuged at 14,000 rpm for 15 min at 4° C. 10 μg of protein was loaded into each well and separated by a 10%-12% SDS-PAGE gel. Proteins were transferred to a 0.45 μm PVDF membrane (Millipore) at 30 V overnight at 4° C. The next day, membranes were blocked with 5% non-fat dry milk (NFDM) in 1× Tris buffer solution containing Tween 20 (TTBS) for 1 h. Membranes were washed in 1×TTBS 3 times for 5 min each, then incubated with primary antibody overnight at 4° C. The primary antibodies used were: phospho-eIF4E (abcam ab76256; 1:1000), GAPDH (Cell Signaling Technology 2118S; 1:10000), total eIF4E (Cell Signaling Technology 9742S; 1:1000). […] Signals were detected using Immobilon Western Chemiluminescent HRP substrate (Millipore). […]
smiles,measurement,setting,value
"Cc1cc(Nc2cc(N)ncn2)c(=O)n2c1C(=O)NC21CCCCC1 [eFT508, Tomivosertib]",rotarod performance vs naïve mice,mice [1],no significant difference
same,SNI-induced changes in AIS length,infralimbic cortex,reversed
same,IC50,[2],2 to 16 nM
same,movement speed in the open field vs naïve mice,mice [3],moved significantly slower
same,crossing of the blood-brain-barrier,eIF4E phosphorylation; evidenced by western blot of eIF4E phosphorylation after drug-treatment,crosses the blood-brain-barrier
same,"eIF4E phosphorylation in mPFC, DRG and sciatic nerve","eIF4E phosphorylation; naïve mice, 1 hour after 10 mg/kg i.p. or p.o.",rapid and profound decrease; also recorded: significantly decreased

# From patent US20220226321A1, “INHIBITOR OF MNK FOR THE TREATMENT OF NEUROPATHIC PAIN” (Board of Regents, The University of Texas System, priority 2019, published 2022)
